Laboratory results taken from article PMC11544189 (Acta Pharmaceutica Sinica. B, 2024).

Tested on: σ1 receptor
Assay: σ[…] protein/BiP dissociation assay
Type: cell-based

With CSC(=S)NCCNC(=O)CCC(=O)Nc1cccc2ccccc12 [Amylovis-201, Methyl (2-{[4-(1-naphthylamino)-4-oxobutanoyl]amino}ethyl)dithiocarbamate] the IC50 was 0.362 µM.
